The values that follow come from patent US7704969B2, “Transfection complexes” (ICH Productions Limited, priority 2001, dated 2010).

For experiment [1], the system named is HAE cells. Nature of the experiment: Whole cell ELISA of phage binding to HAE cells. Details: species or system human. The settings on record: phage sequences of Table 1a compared and ranked using a range of phage titres. As for the experimental part: Following incubation of the phage with the HAE cells, the cells are washed and retained phage may then be detected by immunostaining. Cell specificity is assessed by comparing phage binding to target cells with phage binding to the wells on which the cells were plated and with phage binding to NIH 3T3 fibroblast control cells.
Binding of phage to tissue cultured HAE cells was investigated by whole cell ELISA. Approx. 8×10^4 HAE cells in […] Hanks Balanced Salts Solution (HBSS) were added to each well of a 96 well plate and incubated at 37° C. until cells had adhered. The cells were washed gently in HBSS before blocking by the addition of 0.5% BSA in HBSS for 30 mins. […] Bound phage were detected by the addition of horseradish peroxidase (HRP)-conjugated anti-M13 antibody diluted 1:5000 in blocking buffer for 1 hour, before washing three times in PBS and developing the ELISA with 2,2′-azino-bis(3-ethylbenzthiazoline 6-sulfonic acid) (ABTS) substrate solution and reading the absorbance on a plate-reading spectrophotometer at 405 nm. […]
Approx. […] Bound phage were detected by the addition of HRP-conjugated anti-M13 antibody diluted 1:5000 in blocking buffer for 1 hour, before washing three times in PBS, developing the ELISA with ABTS solution, and reading the absorbance at 405 nm.
(In general: In an ELISA, binding on a coated surface is turned into a signal by an enzyme label.)

The subject of experiment [2] is HAE cells. Nature of the experiment: Luciferase reporter gene transfection of HAE cells with lipid/peptide/DNA vector complexes. It is filed as cell-based, human. The source says: Transfection complexes were made by mixing the components in the order 1) lipid, then 2) peptide and, finally 3) DNA, followed by dilution. The vector complex suspension was applied to HAE cells and control cells. Vector complexes incorporating peptide Q ([K]16-GACLQHKSMPCG [SEQ. ID. NO.:12]) and vector complexes incorporating peptide P ([K]16-GACLPHKSMPCG [SEQ. ID. NO.:13]) were synthesised and compared with vector complexes incorporating peptide S ([K]16-GACYKHPGFLCG] [SEQ. ID. NO.:14]) which is a control peptide having the same amino acid constituents as peptide P but in a randomised order (the “scrambled control”), Peptide 12 ([K]16—XSXGACRRETAWACG [SEQ. ID. NO.:15]), a targeting peptide known to bind to alpha 5 beta 1 integrins and Peptide K ([K]16) a DNA binding moiety with no targeting ligand attached.
Transfections of HAE cells and 3T3 cells were performed in 96 well plates containing 20,000 cells plated 24 hours earlier. In the transfection vector complex, peptide to DNA charge ratios (+/−) were used at 1.5:1, 3:1 and 7:1. At physiological pH, DNA carries negative charge and the polycationic-nucleic acid binding component carries positive charge. The “charge ratio” is accordingly the ratio of the charges of the two components in the complex. The lipid component was maintained at a constant proportion, by weight, relative to DNA of 0.75:1.
Control peptide (S), consisted of the same amino acid constituents as the targeting peptide P but in a randomised order, was synthesised for incorporation into lipopolyplex formulations. Transfections of HAE and 3T3 cells were performed in 96 well plated containing 20,000 cells plated 24 h earlier. In the transfection complex, peptide to DNA charge ratios (+/−) were used at 1.5:1, 3:1 and 7:1. The lipid component was maintained at a constant proportion, by weight, relative to DNA of 0.75:1. Prior to making transfection complexes the lipid component was diluted to a concentration of 15 μg per ml, the peptide was prepared at 0.1 mg/ml and the DNA was at 20 μg per ml. All dilutions were performed with OptiMEM reduced serum tissue culture medium (Life Technologies). Transfection complexes were made by mixing of components in the order 1) lipid then 2) peptide and finally 3) DNA, then diluted with OptiMEM to a concentration relative to the DNA component of 0.25 μg DNA per 200 μl which volume was added to each well. Each group was performed in replicates of six. The vector complex suspension was then applied to cells within 5 minutes of preparation. Transfection incubations were performed at 37° C. for 4 h. Luciferase reporter gene assays in cell free extracts were performed after 48 h incubation using a kit from Promega according to the manufacturer's protocol. […]
On the technique in general: A reporter such as luciferase makes a cellular process visible.

The subject of the next experiment is 3T3 cells. Nature of the experiment: Luciferase reporter gene transfection of 3T3 cells. It is filed as cell-based, mouse. Particulars: FIG. 8, best peptide:DNA charge ratio, expression after 24 hours.

“Also recorded” adds a separate entry of the source. Bridge positions count the residues as written; N and C are the ends. Ends that are not written are not given here.

“LPHKSMP (not fully specified (N-terminus, C-terminus)) [basis of peptide P]”: the “binding affinity to HAE cells (binding strength by ELISA)” value with HAE cells [1] is listed as “highest binding affinity”. Take “[K]16-GACLPHKSMPCG (KKKKKKKKKKKKKKKKGACLPHKSMPCG; disulfide 19-27 (inferred)) [peptide P]”: in the experiment with HAE cells [2] (peptide P at 7:1 charge ratio vs peptide 12 at 3:1 charge ratio, luciferase), the “transfection efficiency relative to peptide 12 (next best peptide)” value is given as “five-fold higher”. For the same substance, the “transfection performance relative to peptide Q” value in the experiment with HAE cells [2] (transfection assay, FIG. 3) is given as “significantly better”. The “transfection efficiency relative to peptide K (K16, no targeting ligand)” value in the experiment on HAE cells [2] (vector complexes, luciferase) was “almost nine-fold higher; also recorded: almost nine-fold more efficient”. For [K]16-GACLQHKSMPCG [peptide Q], the “transfection efficiency relative to peptide 6” value in the experiment with 3T3 cells was “approximately 1.5 times”.

Consider “[K]16-GACSERSMNFCG (KKKKKKKKKKKKKKKKGACSERSMNFCG; disulfide 19-27 (inferred))”, for which the “transfection efficiency relative to peptide 6” value in the experiment on 3T3 cells is reported as “approximately 1.5 times”.

For “[K]16-GACYKHPGFLCG (KKKKKKKKKKKKKKKKGACYKHPGFLCG; N-terminal K16 oligolysine; Targeting peptide, see description) [peptide S, reference compound]”, in the experiment on HAE cells [2] (in transfection complexes), the “transfection performance of peptide S relative to peptide K16” value is “less than a tenth as good”.
